Converted amounts (≈) assume the structure as drawn.
How the values were obtained:
[1] = tested on: Staphylococcus aureus; assay: minimum inhibitory concentration, glucose bouillon medium dilution method; format: cell-based; settings: Method (2) glucose bouillon medium dilution, read-out: Minimum inhibitory amount (minimum inhibitory concentration, 100% control)
Source text: (§1) Bactericidal activity and fungicidal activity of the active compounds of the present invention were examined by potato-dextrose agar dilution method, or [2] glucose bouillon medium dilution method. The results are shown in Table 2 below as the minimum inhibitory concentration (the minimum concentration of active compound found to produce 100% control of the test bacteria and fungi).

[2] = tested on: Bacillus subtilis; assay: as above; format: cell-based; settings: Method (2) glucose bouillon medium dilution, read-out: Minimum inhibitory amount (minimum inhibitory concentration, 100% control)
Source text: as §1

[3] = tested on: Escherichia coli; assay: as above; format: cell-based; settings: Method (2) glucose bouillon medium dilution, read-out: Minimum inhibitory amount (minimum inhibitory concentration, 100% control)
Source text: as §1

[4] = tested on: Aspergillus niger; assay: minimum inhibitory concentration, potato-dextrose agar dilution method; format: cell-based; settings: Method (1) potato-dextrose agar dilution, read-out: Minimum inhibitory amount (minimum inhibitory concentration, 100% control)
Source text: as §1

[5] = tested on: Penicillium citrinum; assay: as above; format: cell-based; settings: Method (1) potato-dextrose agar dilution, read-out: Minimum inhibitory amount (minimum inhibitory concentration, 100% control)
Source text: as §1

[6] = tested on: Cladosporium harbarum; assay: as above; format: cell-based; settings: Cladosporium harbarum; Method (1) potato-dextrose agar dilution; read-out: Minimum inhibitory amount (minimum inhibitory concentration, 100% control)
Source text: as §1

[7] = tested on: fungi; assay: degree of propagation on slime test boards in Waxman's liquid medium; design: key: -: no propagation; +: the area of propagation is 1-25% on the slime test boards.; ++: the area of propagation is 26-50% on the slime test boards.; +++: the area of propagation is 51-75% on the slime test boards.; ++++: the area of propagation is 76-100% on the slime test boards; settings: 0.02 part active compound (10% water soluble concentrate) in 100 parts medium, same method
Method: (§2) Zero point zero two (0.02) part of active compounds in the form of 10% water soluble concentrate which was prepared by Example 11 was added into 100 parts of Waxman's liquid medium. Pieces of wood and iron (hereafter referred to as the slime test boards) were soaked into the Waxman's liquid medium. The bacteria which were gathered from circular water system were inoculated upon the Waxman's liquid medim and incubated at 27°-34° C by shaking culture for 2 days. The degree of propagation of the bacteria on the slime test boards was examined.
(§3) The growth-inhibiting activity of active compounds against the fungi and the green algae was also examined by the same method as mentioned above.
(§4) The degree of propagation of the bacteria, fungi or green algae on the slime test boards is difined in term of the following symbols.

[8] = tested on: green algae; assay: as above; design: key: -: no propagation; +: the area of propagation is 1-25% on the slime test boards.; ++: the area of propagation is 26-50% on the slime test boards.; +++: the area of propagation is 51-75% on the slime test boards.; ++++: the area of propagation is 76-100% on the slime test boards; settings: 0.02 part active compound (10% water soluble concentrate) in 100 parts medium, same method
Method: as §2, §3, §4

| SMILES | MIC [1] [µg/mL] | MIC [2] [µg/mL] | MIC [3] [µg/mL] | MIC [4] [µg/mL] | MIC [5] [µg/mL] | MIC [6] [µg/mL] | Degree of propagation [7] | Degree of propagation [8] |
| --- | --- | --- | --- | --- | --- | --- | --- | --- |
| O=C(NC=C(Cl)Cl)c1cccc([N+](=O)[O-])c1O [compound 14] | 5 (≈ 18 µM) | 5 (≈ 18 µM) | 60 (≈ 217 µM) | 10 (≈ 36.1 µM) | 10 (≈ 36.1 µM) | 10 (≈ 36.1 µM) |  |  |
| CCCC(=O)Oc1ccccc1C(=O)NC=C(Cl)Cl [compound 16] | 10 (≈ 33.1 µM) | 5 (≈ 16.5 µM) | 60 (≈ 199 µM) | 10 (≈ 33.1 µM) | 10 (≈ 33.1 µM) | 5 (≈ 16.5 µM) | - |  |
| CC(C)C(=O)Oc1ccccc1C(=O)NC=C(Cl)Cl [compound 17] | 5 (≈ 16.5 µM) | 5 (≈ 16.5 µM) | 40 (≈ 132 µM) | 10 (≈ 33.1 µM) | 10 (≈ 33.1 µM) | 10 (≈ 33.1 µM) |  |  |
| O=C(CCl)Oc1ccccc1C(=O)NC=C(Cl)Cl [compound 19] | 5 (≈ 16.2 µM) | 5 (≈ 16.2 µM) | 40 (≈ 130 µM) | 10 (≈ 32.4 µM) | 10 (≈ 32.4 µM) | 5 (≈ 16.2 µM) | - | - |
| O=C(NC=C(Cl)Cl)c1ccccc1OC(=O)C(Cl)Cl [compound 20] | 10 (≈ 29.2 µM) | 5 (≈ 14.6 µM) | 60 (≈ 175 µM) | 10 (≈ 29.2 µM) | 10 (≈ 29.2 µM) | 10 (≈ 29.2 µM) |  |  |
| CCOC(=O)Oc1ccccc1C(=O)NC=C(Cl)Cl [compound 22] | 2.5 (≈ 8.22 µM) | 5 (≈ 16.4 µM) | 40 (≈ 132 µM) | 10 (≈ 32.9 µM) | 10 (≈ 32.9 µM) | 10 (≈ 32.9 µM) | + (the area of propagation is 1-25% on the slime test boards.) |  |
| CC(C)COC(=O)Oc1ccccc1C(=O)NC=C(Cl)Cl [compound 23] | 5 (≈ 15.1 µM) | 5 (≈ 15.1 µM) | 40 (≈ 120 µM) | 10 (≈ 30.1 µM) | 10 (≈ 30.1 µM) | 10 (≈ 30.1 µM) |  |  |
| COc1ccccc1C(=O)NC=C(Cl)Cl [compound 24] | 10 (≈ 40.6 µM) | 10 (≈ 40.6 µM) | 60 (≈ 244 µM) | 20 (≈ 81.3 µM) | 20 (≈ 81.3 µM) | 10 (≈ 40.6 µM) |  |  |
| O=C(NC=C(Cl)Cl)c1cc(Cl)cc(Cl)c1O [compound 26] | 5 (≈ 16.6 µM) | 5 (≈ 16.6 µM) | 40 (≈ 133 µM) | 10 (≈ 33.2 µM) | 10 (≈ 33.2 µM) | 5 (≈ 16.6 µM) |  |  |
| CC(=O)Oc1c(Cl)cc(Cl)cc1C(=O)NC=C(Cl)Cl [compound 27] | 2.5 (≈ 7.29 µM) | 2.5 (≈ 7.29 µM) | 40 (≈ 117 µM) | 10 (≈ 29.2 µM) | 5 (≈ 14.6 µM) | 5 (≈ 14.6 µM) |  |  |
